Patent publication US20150038438A1, “ANTIBACTERIAL COMPOUNDS AND METHODS FOR USE” (PTC THERAPEUTICS, INC., priority 2011, published 2015)
Converted amounts (≈) assume the structure as drawn. Counter-ions that a name gives are not always drawn. Like-named read-outs stand apart in the source and are kept apart here.

What was measured:
Assay in all cases: Antibacterial activity, microbroth dilution method (MIC)
[1] = system: Gram-positive Staphylococcus aureus (S. aureus) 29213; type: cell-based; details: Staphylococcus aureus, Gram-positive S. aureus 29213
Method in brief: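 Broth microdilution; endpoint = no macroscopic growth; value = lowest inhibiting concn, μg/mL.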

[2] = system: super sensitive Gram-negative Escherichia coli (E. coli) BAS849; type: cell-based; details: Escherichia coli, read-out: MIC, E. coli BAS849
Method in brief: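 MIC (μg/mL) is taken as the lowest concentration with no macroscopically visible growth. Strains tested by microbroth dilution: Gram-positive S. aureus 29213, control Gram-negative E. coli 25922, and super-sensitive E. coli BAS849.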

[3] = system: control Gram-negative E. coli 25922 strain; type: cell-based, Escherichia coli; details: Escherichia coli
Method in brief: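 Read-out: visual absence of growth. The lowest concentration meeting this gives the MIC, expressed in μg/mL, with microbroth dilution as the method.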

[4] = super sensitive Gram-negative E. coli BAS849, microbroth dilution

`Cn1c2c(cc(C(=O)O)c1=O)CCCc1cc3c(ccn3C)cc1-2` [Cpd 133, 1,9-dimethyl-2-oxo-1,2,5,6,7,9-hexahydropyrido[3′,2′:6,7]cyclohepta[1,2-f]indole-3-carboxylic acid] was tested, and the MIC [1] was 12.5 to 150 µg/mL (≈ 38.8 to 465 µM), the MIC [2, 4] was under 1 µg/mL and the MIC [3] was 3.5 to 12.5 µg/mL (≈ 10.9 to 38.8 µM).

Work on `CCNCCc1cc2cc3c(cc2n1C)C=CCc1c-3[nH]c(=O)c(C(=O)O)c1O.O=C(O)C(F)(F)F` [Cpd 164, 10-(2-(ethylamino)ethyl)-4-hydroxy-9-methyl-2-oxo-1,2,5,9-tetrahydropyrido[3′,2′:6,7]cyclohepta[1,2-f]indole-3-carboxylic acid trifluoroacetate] yielded an MIC [1] of 12.5 to 150 µg/mL, an MIC [2] of under 1 µg/mL and an MIC [3] of 1 to 3.5 µg/mL.

Work on `Cl.Cn1c(CNC(C)(C)C)cc2cc3c(cc21)NCCc1c-3[nH]c(=O)c(C(=O)O)c1O` [Cpd 102, 10-((tert-butylamino)methyl)-4-hydroxy-9-methyl-2-oxo-1,2,5,6,7,9-hexahydropyrido[2′,3′:4,5]azepino[3,2-f]indole-3-carboxylic acid hydrochloride] yielded an MIC [1] of 12.5 to 150 µg/mL, an MIC [2, 4] of 1 to 3.5 µg/mL and an MIC [3] of 3.5 to 12.5 µg/mL.

Compound `CNCc1cc2cc3c(cc2n1C)CCc1c-3[nH]c(=O)c(C(=O)O)c1O.Cl` [Cpd 20, 4-hydroxy-8-methyl-9-((methylamino)methyl)-2-oxo-2,5,6,8-tetrahydro-1H-indolo[6,5-h]quinoline-3-carboxylic acid hydrochloride] has an MIC [1] of 12.5 to 150 µg/mL, an MIC [2, 4] of 1 to 3.5 µg/mL and an MIC [3] of 3.5 to 12.5 µg/mL.

Work on `CNCc1cc2cc3c(cc2n1C)C(C)CCc1c-3[nH]c(=O)c(C(=O)O)c1O.Cl` (stereo not drawn) [Cpd 62, 4-hydroxy-7,9-dimethyl-10-((methylamino)methyl)-2-oxo-1,2,5,6,7,9-hexahydropyrido[3′,2′:6,7]cyclohepta[1,2-f]indole-3-carboxylic acid hydrochloride] yielded an MIC [1] of 12.5 to 150 µg/mL, an MIC [2, 4] of 1 to 3.5 µg/mL and an MIC [3] of 3.5 to 12.5 µg/mL.

With `CN(C)C1CCN(c2ccc3c(c2)CCCc2c-3[nH]c(=O)c(C(=O)O)c2O)C1.Cl` (stereo not drawn) [Cpd 6, 9-(3-(dimethylamino)pyrrolidin-1-yl)-4-hydroxy-2-oxo-2,5,6,7-tetrahydro-1H-benzo[6,7]cyclohepta[1,2-b]pyridine-3-carboxylic acid hydrochloride] the MIC [1] was 12.5 to 150 µg/mL, the MIC [2, 4] was under 1 µg/mL and the MIC [3] was 3.5 to 12.5 µg/mL.

With `COCCNCc1cc2cc3c(cc2n1C)CCCc1c-3[nH]c(=O)c(C(=O)O)c1O.Cl` [Cpd 148, 4-hydroxy-10-(((2-methoxyethyl)amino)methyl)-9-methyl-2-oxo-1,2,5,6,7,9-hexahydropyrido[3′,2′:6,7]cyclohepta[1,2-f]indole-3-carboxylic acid hydrochloride] the MIC [1] was 12.5 to 150 µg/mL, the MIC [2, 4] was under 1 µg/mL and the MIC [3] was under 1 µg/mL.

Compound `CCCNc1ccc2c(c1)CCCCc1c-2[nH]c(=O)c(C(=O)O)c1O` [Cpd 128, 4-hydroxy-2-oxo-10-(propylamino)-1,2,5,6,7,8-hexahydrobenzo[7,8]cycloocta[1,2-b]pyridine-3-carboxylic acid] has an MIC [1] of 3.5 to 12.5 µg/mL (≈ 10.2 to 36.5 µM), an MIC [2, 4] of 1 to 3.5 µg/mL (≈ 2.92 to 10.2 µM) and an MIC [3] of 12.5 to 150 µg/mL (≈ 36.5 to 438 µM).

Compound `CCCNCc1cc2cc3c(cc2n1C)OCCc1c-3[nH]c(=O)c(C(=O)O)c1O.Cl` [Cpd 169, 4-hydroxy-9-methyl-2-oxo-10-((propylamino)methyl)-2,5,6,9-tetrahydro-1H-pyrido[2′,3′:4,5]oxepino[3,2-f]indole-3-carboxylic acid hydrochloride] has an MIC [1] of 3.5 to 12.5 µg/mL, an MIC [2, 4] of under 1 µg/mL and an MIC [3] of under 1 µg/mL.

Work on `Cl.Cn1c(CN2CCC2)cc2cc3c(cc21)CCCc1cc(C(=O)O)c(=O)[nH]c1-3` [Cpd 57, 10-(azetidin-1-ylmethyl)-9-methyl-2-oxo-1,2,5,6,7,9-hexahydropyrido[3′,2′:6,7]cyclohepta[1,2-f]indole-3-carboxylic acid hydrochloride] yielded an MIC [1] of 12.5 to 150 µg/mL, an MIC [2, 4] of under 1 µg/mL and an MIC [3] of under 1 µg/mL.

`Cl.Cn1c(CN2CCCC2)cc2cc3c(cc21)OCCc1c-3[nH]c(=O)c(C(=O)O)c1O` [Cpd 174, 4-hydroxy-9-methyl-2-oxo-10-(pyrrolidin-1-ylmethyl)-2,5,6,9-tetrahydro-1H-pyrido[2′,3′:4,5]oxepino[3,2-f]indole-3-carboxylic acid hydrochloride] showed an MIC [1] of 12.5 to 150 µg/mL, an MIC [2, 4] of under 1 µg/mL and an MIC [3] of 1 to 3.5 µg/mL.

`CC(=O)NC1CCN(Cc2cc3cc4c(cc3n2C)CCCc2c-4[nH]c(=O)c(C(=O)O)c2O)C1.Cl` (stereo not drawn) [Cpd 159, 10-((3-acetamidopyrrolidin-1-yl)methyl)-4-hydroxy-9-methyl-2-oxo-1,2,5,6,7,9-hexahydropyrido[3′,2′:6,7]cyclohepta[1,2-f]indole-3-carboxylic acid hydrochloride] showed an MIC [1] of 12.5 to 150 µg/mL, an MIC [2, 4] of under 1 µg/mL and an MIC [3] of 3.5 to 12.5 µg/mL.

In the case of `N[C@@H]1[C@H]2CN(c3cc4c(c(F)c3F)-c3[nH]c(=O)c(C(=O)O)c(O)c3CCC4)C[C@@H]12` [Cpd 124, 9-((cis,cis)-6-amino-3-azabicyclo[3.1.0]hexan-3-yl)-10,11-difluoro-4-hydroxy-2-oxo-2,5,6,7-tetrahydro-1H-benzo[6,7]cyclohepta[1,2-b]pyridine-3-carboxylic acid hydrochloride], the MIC [1] is reported as 12.5 to 150 µg/mL, the MIC [2, 4] is reported as under 1 µg/mL and the MIC [3] is reported as 3.5 to 12.5 µg/mL.

In the case of `CCCCNCc1cc2cc3c(cc2n1C)CCCc1c-3[nH]c(=O)c(C(=O)O)c1O.Cl` [Cpd 136, 10-((butylamino)methyl)-4-hydroxy-9-methyl-2-oxo-1,2,5,6,7,9-hexahydropyrido[3′,2′:6,7]cyclohepta[1,2-f]indole-3-carboxylic acid hydrochloride], the MIC [1] is reported as 3.5 to 12.5 µg/mL, the MIC [2, 4] is reported as under 1 µg/mL and the MIC [3] is reported as under 1 µg/mL.

With `Cl.Cn1c(CNCC(C)(C)C)cc2cc3c(cc21)CCCc1c-3[nH]c(=O)c(C(=O)O)c1O` [Cpd 155, 4-hydroxy-9-methyl-10-((neopentylamino)methyl)-2-oxo-1,2,5,6,7,9-hexahydropyrido[3′,2′:6,7]cyclohepta[1,2-f]indole-3-carboxylic acid hydrochloride] the MIC [1] was 3.5 to 12.5 µg/mL, the MIC [2, 4] was under 1 µg/mL and the MIC [3] was 1 to 3.5 µg/mL.

`CN(Cc1ccccc1)[C@H]1[C@@H]2CN(c3ccc4c(c3)CCCc3c-4[nH]c(=O)c(C(=O)O)c3O)C[C@@H]21` [Cpd 10, 9-((cis,cis)-6-(benzyl(methyl)amino)-3-azabicyclo[3.1.0]hexan-3-yl)-4-hydroxy-2-oxo-2,5,6,7-tetrahydro-1H-benzo[6,7]cyclohepta[1,2-b]pyridine-3-carboxylic acid hydrochloride] was tested, and the MIC [1] was 1 to 3.5 µg/mL, the MIC [2, 4] was 3.5 to 12.5 µg/mL and the MIC [3] was 12.5 to 150 µg/mL.

Work on `Cl.Cl.Cn1c(CN2CCCC(N)C2)cc2cc3c(cc21)CCCc1c-3[nH]c(=O)c(C(=O)O)c1O` (stereo not drawn) [Cpd 31, 10-((3-aminopiperidin-1-yl)methyl)-4-hydroxy-9-methyl-2-oxo-1,2,5,6,7,9-hexahydropyrido[3′,2′:6,7]cyclohepta[1,2-f]indole-3-carboxylic acid dihydrochloride] yielded an MIC [1] of 12.5 to 150 µg/mL, an MIC [2, 4] of 1 to 3.5 µg/mL and an MIC [3] of 3.5 to 12.5 µg/mL.

In the case of `CCNCc1cc2c3c(ccc2n1C)-c1[nH]c(=O)c(C(=O)O)c(O)c1CCC3.Cl` [Cpd 61, 2-((ethylamino)methyl)-7-hydroxy-1-methyl-9-oxo-1,4,5,6,9,10-hexahydropyrido[2′,3′:3,4]cyclohepta[1,2-e]indole-8-carboxylic acid hydrochloride], the MIC [1] is reported as 12.5 to 150 µg/mL, the MIC [2, 4] is reported as 3.5 to 12.5 µg/mL and the MIC [3] is reported as 3.5 to 12.5 µg/mL.

`CC1Oc2ccccc2-c2[nH]c(=O)c(C(=O)O)cc21` (stereo not drawn) [Cpd 73, 5-methyl-2-oxo-2,5-dihydro-1H-chromeno[4,3-b]pyridine-3-carboxylic acid] was tested, and the MIC [1] was 12.5 to 150 µg/mL (≈ 48.6 to 583 µM), the MIC [2, 4] was 12.5 to 150 µg/mL (≈ 48.6 to 583 µM) and the MIC [3] was 12.5 to 150 µg/mL (≈ 48.6 to 583 µM).

`CC1COc2cc(N3C[C@@H]4[C@H](C3)[C@H]4N(Cc3ccccc3)Cc3ccccc3)ccc2-c2[nH]c(=O)c(C(=O)O)c(O)c21` (stereo partly drawn) [Cpd 85, 9-((cis,cis)-6-(dibenzylamino)-3-azabicyclo[3.1.0]hexan-3-yl)-4-hydroxy-5-methyl-2-oxo-1,2,5,6-tetrahydrobenzo[2,3]oxepino[4,5-b]pyridine-3-carboxylic acid hydrochloride] showed an MIC [1] of 12.5 to 150 µg/mL, an MIC [2, 4] of 12.5 to 150 µg/mL and an MIC [3] of 12.5 to 150 µg/mL.

`Cl.O=C(O)c1c(O)c2c([nH]c1=O)-c1ccc(N3CCC4(CNC4)C3)cc1CCC2` [Cpd 121, 4-hydroxy-2-oxo-9-(2,6-diazaspiro[3.4]octan-6-yl)-2,5,6,7-tetrahydro-1H-benzo[6,7]cyclohepta[1,2-b]pyridine-3-carboxylic acid hydrochloride] was tested, and the MIC [1] was 12.5 to 150 µg/mL, the MIC [2, 4] was 3.5 to 12.5 µg/mL and the MIC [3] was 12.5 to 150 µg/mL.

`CN(C)C1CCN(c2ccc3c(c2)C(O)CCc2c-3[nH]c(=O)c(C(=O)O)c2O)C1.Cl` (stereo not drawn) [Cpd 15, 9-(3-(dimethylamino)pyrrolidin-1-yl)-4,7-dihydroxy-2-oxo-2,5,6,7-tetrahydro-1H-benzo[6,7]cyclohepta[1,2-b]pyridine-3-carboxylic acid hydrochloride] showed an MIC [1] of 12.5 to 150 µg/mL, an MIC [2, 4] of 12.5 to 150 µg/mL and an MIC [3] of 12.5 to 150 µg/mL.

For `CN(C)C1CCN(c2ccc3c(c2)CCCc2c-3[nH]c(=O)c(C(=O)O)c2O)CC1.Cl` [Cpd 116, 9-(4-(dimethylamino)piperidin-1-yl)-4-hydroxy-2-oxo-2,5,6,7-tetrahydro-1H-benzo[6,7]cyclohepta[1,2-b]pyridine-3-carboxylic acid hydrochloride], the MIC [1] was 12.5 to 150 µg/mL, the MIC [2, 4] was 3.5 to 12.5 µg/mL and the MIC [3] was 12.5 to 150 µg/mL.

`CNCc1cc2c3c(ccc2n1C)-c1[nH]c(=O)c(C(=O)O)c(O)c1CCC3.Cl` [Cpd 60, 7-hydroxy-1-methyl-2-((methylamino)methyl)-9-oxo-1,4,5,6,9,10-hexahydropyrido[2′,3′:3,4]cyclohepta[1,2-e]indole-8-carboxylic acid hydrochloride] showed an MIC [1] of 12.5 to 150 µg/mL, an MIC [2, 4] of 3.5 to 12.5 µg/mL and an MIC [3] of 12.5 to 150 µg/mL.

Compound `Cl.Cl.Cn1c(CNCCN2CCCC2)cc2cc3c(cc21)OCCc1c-3[nH]c(=O)c(C(=O)O)c1O` [Cpd 179, 4-hydroxy-9-methyl-2-oxo-10-(((2-(pyrrolidin-1-yl)ethyl)amino)methyl)-2,5,6,9-tetrahydro-1H-pyrido[2′,3′:4,5]oxepino[3,2-f]indole-3-carboxylic acid dihydrochloride] has an MIC [1] of 12.5 to 150 µg/mL, an MIC [2, 4] of 12.5 to 150 µg/mL and an MIC [3] of 12.5 to 150 µg/mL.
